Measured values from patent US20130065818A1, “Arylamide Compounds And Compositions And Uses Thereof” (POLYMEDIX, priority 2006, published 2013).
Converted amounts (≈) assume the structure as drawn. “Also recorded” adds a separate entry of the source.

Tests used:
[1] = test system: Fluoroquinolone-Resistant Methicillin-Resistant Staphylococcus aureus Strain K950; test: MIC characterization of strain K950; assay type: cell-based; conditions: read-out: MIC (Minimum Inhibitory Concentration)
[2] = test system: fluoroquinolone-resistant, methicillin-resistant Staphylococcus aureus (K950); test: NZW rabbit keratitis model, corneal colony counts; assay type: in vivo; conditions: for Statistical comparison of corneal colony counts (< = significantly fewer colony counts): drops every 15 min
Excerpt: (§1) One purpose of the following experiments was to compare the efficacy of 1% Oligomer 2, 0.5% Oligomer 2, and 5% vancomycin in the treatment of a fluoroquinolone-resistant, methicillin-resistant Staphylococcus aureus infection in the NZW rabbit keratitis model with or without intact corneal epithelia.
Nothing was done to the right eyes.
as §1, with “0.25%” for “1%”, “with and without 0.005% benzalkonium chloride,” for “0.5% Oligomer 2,”, “epithelia. The 0.005% benzalkonium chloride has been added to try to increase the penetration of 0.25% Oligomer 2 through the corneal epithelium.” for “epithelia.”
One purpose of the following experiments was to determine the efficacy of 0.25% Oligomer 4, with and without 200 μM Farnesol, and 200 μM Farnesol in the treatment of a fluoroquinolone-resistant and methicillin-resistant Staphylococcus aureus infection in the NZW rabbit keratitis model with or without intact corneal epithelia. The 200 μM Farnesol has been added to try to increase the efficacy and penetration of 0.25% Oligomer 4 through the corneal epithelium.

[3] = NZW rabbit keratitis model, clinical evaluation (Total Ocular Score); conditions: Oligomer 2 study, N 3
Method: Fifteen rabbits were received from Myrtles' Rabbitry, Thompson Station, TN. The clinical isolate of fluoroquinolone-resistant, methicillin-resistant (MRSA) Staphylococcus aureus (K950) was subcultured on 5% sheep blood agar and incubated at 37° C. in 6% CO2 overnight. The next morning, the MRSA strain was suspended in sterile trypticase soy broth to a 0.5 McFarland Standard, containing approximately 5×10^8 cfu/ml of bacteria. The absorbance of the suspension was measured at 650 nm using a Beckman DU-70 spectrophotometer. OD readings of 0.07 corresponded to 5×10^8 cfu/ml of bacteria. This concentration was appropriately diluted in sterile trypticase soy broth to provide the inoculum of approximately 1,000 (1.0×10^3) cfu/eye in 25 μl. Colony counts were performed on the inoculum to determine the actual cfu inoculated. Following general anesthesia with ketamine and xylazine and topical anesthesia with proparacaine and prior to bacterial inoculation in the left eyes, 6 mm areas of the corneal epithelia was removed centrally with an Amoils epithelial scrubber. Nothing was done to the right eyes. The 15 rabbits were then inoculated intrastromally in both eyes with 25 μl of the bacterial dilution of approximately 10^3 cfu/eye of the bacteria. The bacterial inoculation of the left eyes was directly under the epithelial defect created by the Amoils epithelial scrubber. The epithelia were removed in the left corneas in order to determine whether this layer of the cornea is a barrier for Oligomer 2 penetration when compared to the right cornea with an intact epithelium. A colony count was done on the inoculum to determine the actual cfu inoculated. The rabbits were immediately treated with analgesia in the form of and intramuscular injection of ketoprofen, 1.5 mg/kg. After 4 hours, the 15 rabbits were divided into 4 treatment groups and one untreated control group sacrificed at the onset of therapy. Both eyes of each rabbit of the treatment groups were treated with one 37 μl drop of the coded solutions or control Saline or 1 drop of vancomycin from its dropper bottle. The Oligomer 2 concentrations were masked and labeled as 1 and 2. The masked concentrations were 1% Oligomer 2 and 0.5% Oligomer 2 but the specific concentrations of solutions were not known to the lab workers who carried out the experiment. The vancomycin and control (Tris-Buffered Saline) were not masked.
Treatment was scheduled for every 15 minutes for 5 hours (21 total doses). However, PMX-1 and PMX-2 were exhausted after the 19th dose. Therefore, the actual treatment was 15 minutes for 4.5 hours (19 total doses). The 3 rabbits in group V were sacrificed 4 hours PI and large 9.5 mm buttons were removed from the corneas. These were placed in 1 ml of PBS and kept on ice. The corneal buttons were homogenized for 25 seconds on ice using the motorized homogenizer. After homogenization, colony counts were done on the homogenates using 5% sheep blood agar plates to determine the amount of bacteria contained in the corneas at the onset of therapy. Following the completion of therapy, the eyes were examined for clinical signs of infection. One hour after the final treatment, the treated rabbits (Groups I-IV) were sacrificed and large 9.5 mm buttons were removed from the corneas. These were placed in 1 ml of PBS and kept on ice. The corneal buttons were homogenized for 25 seconds on ice using the motorized homogenizer. After homogenization, colony counts were performed on the homogenates using 5% sheep blood agar plates to determine the amount of bacteria contained in the corneas after treatment. The next morning, the plates were counted and the number of cfu/eye of Staphylococcus aureus was determined for each cornea.
Fifteen rabbits were received from Myrtles' Rabbitry, Thompson Station, TN.

SMILES: CN[C@H](CC(C)C)C(=O)N[C@H]1C(=O)N[C@@H](CC(N)=O)C(=O)N[C@H]2C(=O)N[C@H]3C(=O)N[C@H](C(=O)N[C@H](C(=O)O)c4cc(O)cc(O)c4-c4cc3ccc4O)[C@H](O)c3ccc(c(Cl)c3)Oc3cc2cc(c3O[C@@H]2O[C@H](CO)[C@@H](O)[C@H](O)[C@H]2O[C@H]2C[C@](C)(N)[C@H](O)[C@H](C)O2)Oc2ccc(cc2Cl)[C@H]1O [Vancomycin, reference compound]
- MIC [1]: 2 µg/mL (≈ 1.38 µM)
- Statistical comparison of corneal colony counts (< = significantly fewer colony counts) ([2]; Ker-1 (Example 9), abraded (removed) epithelium, 19 doses): Vancomycin<Saline Control
- Statistical comparison of corneal colony counts (< = significantly fewer colony counts) ([2]; Ker-1 (Example 9), intact epithelium, 19 doses): Vancomycin<Saline Control; also recorded: Vancomycin<PMX-1; also recorded: Vancomycin<PMX-2
- Statistical comparison of corneal colony counts (< = significantly fewer colony counts) ([2]; Ker-2 (Example 10), abraded (removed) epithelium, 21 doses): Vancomycin<Saline Control
- Statistical comparison of corneal colony counts (< = significantly fewer colony counts) ([2]; Ker-2 (Example 10), intact epithelium, 21 doses): Vancomycin<Saline Control; also recorded: Vancomycin<PMX-B
- Effect of Abraded Epithelium on colony counts (Intact vs. Abraded, two sample T-test) ([2]; Log10 CFU/ml, < = significantly fewer colony counts): Abraded = Intact
- Effect of Abraded Epithelium on Effectiveness of Each Test Solution (colony counts, abraded vs. intact) ([2]; Oligomer 2 study, two sample T-test, < = significantly fewer colony counts): Abraded = Intact
- Total Ocular Score, Median ([3]; abraded epithelium): 9.5
- Total Ocular Score, Median ([3]; intact epithelium): 9.5
